Data taken from patent US20100047371A1, “COMPOSITIONS AND METHODS FOR ORAL CANCER CHEMOPREVENTION USING BERRY PREPARATIONS AND EXTRACTS” (priority 2006, published 2010).

Legend:
[1] = Human pharmacokinetic study: anthocyanins in saliva and peripheral blood after topical gel application; format: in vivo; conditions: for Anthocyanin concentration in saliva / Anthocyanin concentration in peripheral blood: 1.0 g 5% FBR Gel, pH 6.5 topical to floor of mouth; for Anthocyanin concentration in saliva: saliva collected 2-5 min after application; for Anthocyanin concentration in peripheral blood: blood drawn five minutes after application
Description: Anthocyanin content in sera, saliva, and tissue explants was evaluated by an HPLC-MS assay. The respective samples (sera, saliva or tissue homogenates) were dissolved in 90% solvent A (water plus 1% formic acid) and 10% solvent B (acetonitrile plus 1% formic acid) and then separated on a Symmetry C18 reversed-phase column and analyzed using a Waters 2695 gradient HPLC separation module equipped with a 996 photodiode-array (PDA) UV/visible absorbance detector (Milford, Mass.). The solvent system consisted of a step gradient from 90% A to 50% B over 15 minutes, and the absorption spectra were recorded from 200-800 nm with the inline PDA detector. Mass spectrometry was conducted on a quadrupole ion tunnel mass spectrometer equipped with a Z-spray ESI source. Explant protein levels were determined by the Lowry method, using bovine γ-globulin as the standard protein [Lippman et al., 1993].
Next, evaluation of anthocyanin uptake into human oral mucosa from FBR gels prepared as described in Example 1 was undertaken. For in-vivo studies, participation of human subjects was conducted in accordance with an IRB approved protocol. […] For the phamacokinetic analyses, nine consenting adult volunteers dried the anterior floor of their mouth, placed 1.0 g of 5% berry gel (pH 6.5), and massaged the gel in place for 30 seconds to facilitate uptake. Two minutes after gel application saliva was collected for the next three minutes. Peripheral blood was drawn five minutes after gel application. Following clotting, sera samples were collected, and both the sera and saliva samples were stored at −80° C. until LC-MS analysis as described below.
All nine participants had detectable anthocyanin levels of three anthocyanins (cyanidin 3-rutinoside, cyanidin 3-xylosylrutinoside, cyanidin 3-glucoside) in either their saliva or blood, and 4 donors had detectable levels of two anthocyanins (cyanidin 3-rutinoside and cyanidin 3-xylosylrutinoside) in their peripheral blood. Saliva from eight of the nine donors contained detectable levels of either two (cyanidin 3-rutinoside and cyanidin 3-xylosylrutinoside-4 donors) or three anthocyanins (4 donors).

[2] = system: Human Oral Mucosa Explant Tissues; assay: Effect of final gel pH on anthocyanin uptake into human oral mucosa explant tissues; format: in vitro ADME; conditions: 10% w/w FBR gel
Description: Anthocyanin content in sera, saliva, and tissue explants was evaluated by an HPLC-MS assay. The respective samples (sera, saliva or tissue homogenates) were dissolved in 90% solvent A (water plus 1% formic acid) and 10% solvent B (acetonitrile plus 1% formic acid) and then separated on a Symmetry C18 reversed-phase column and analyzed using a Waters 2695 gradient HPLC separation module equipped with a 996 photodiode-array (PDA) UV/visible absorbance detector (Milford, Mass.). The solvent system consisted of a step gradient from 90% A to 50% B over 15 minutes, and the absorption spectra were recorded from 200-800 nm with the inline PDA detector. Mass spectrometry was conducted on a quadrupole ion tunnel mass spectrometer equipped with a Z-spray ESI source. Explant protein levels were determined by the Lowry method, using bovine γ-globulin as the standard protein [Lippman et al., 1993]. Tissue explants, specifically human oral mucosal explants, were used to determine the in vitro effects of FBR content and pH on anthocyanin uptake. Human oral tissues for the tissue explant studies were obtained from consenting volunteers who were undergoing elective oral surgery procedures. To confirm “no pathologic diagnosis”, a portion of each of these tissues was submitted for light microscopic evaluation. […] Tissues for explant experiments were immediately placed in an artificial saliva transport medium, which also served as the incubation medium for the gel absorption studies. The composition of the artificial saliva used for tissue transport and incubation was (final concentrations): sodium carboxymethylcellulose (0.5%), sorbitol (165 mM), NaCl (14 mM), KCl (16 mM), calcium chloride dehydrate (1.0 mM), MgCl2 (0.63 mM), Trizma hydrochloride (2.0 mM). Tissues from eight donors were used for preliminary studies to compare the penetration of anthocyanins from the 5% berry gel and the 10% FBR gel, both at a final pH of 6.5. In order to account for heterogeneity among human donors, tissue samples were hemisected. One tissue portion treated with 5% and the other with 10% FBR gels. One gram of gel (containing either 5% or 10% w/w FBR) was placed on the epithelial surface of the explant, followed by gently rubbing of the site for 30 seconds to facilitate uptake. Explants were then placed into artificial saliva, incubated for 30 minutes (37° C., 5% CO2), and then frozen at −80° C. until HPLC-mass spectroscopy analyses as previously reported [Rodrigo et al., in press]. Tissue preparation for HPLC analyses consisted of homogenization of the entire oral mucosal specimen, removal of an aliquot for sample protein level determination, followed by the addition of collagenase type II (0.1 mg/mL, GIBCO, Grand Island, N.Y.) and 1% formic acid. Samples were then placed on a Sep Pack (Millipore, Billerica, Mass.), eluted with methanol, and dried under argon gas. Additional oral mucosal explant studies were conducted to compare the effect of FBR gel pH on absorption into oral mucosal explants. Tissues from eleven donors were used for these studies, and handling was as described above with the exception that all gels contained 10% w/w FBR and were formulated at a final pH of 3.5 or 6.5. […] Large differences (up to 15-fold) in detectable anthocyanin levels were found in the gel treated donor tissues; findings that likely reflect the extensive heterogeneity within human tissues that affects tissue penetrative abilities.

[3] = average of eleven explant samples

C[C@@H]1O[C@@H](OC[C@H]2O[C@@H](Oc3cc4c(O)cc(O)cc4[o+]c3-c3ccc(O)c(O)c3)[C@H](O)[C@@H](O)[C@@H]2O)[C@H](O)[C@H](O)[C@H]1O [cyanidin 3-rutinoside]
number of donors with detectable levels in peripheral blood ([1]; of nine participants, 5% berry gel (pH 6.5), five minutes after application): 4 donors
Anthocyanin concentration in saliva ([1]; patient 101): 3.5 pmol/mL
Anthocyanin concentration in saliva ([1]; patient 102): 1.7 pmol/mL
Anthocyanin concentration in peripheral blood ([1]; patient 103): 2.3 pmol/mL
Anthocyanin concentration in saliva ([1]; patient 104): 4.6 pmol/mL
Anthocyanin concentration in peripheral blood ([1]; patient 105): 7.4 pmol/mL
Anthocyanin concentration in saliva ([1]; patient 105): 8.3 pmol/mL
Anthocyanin concentration in peripheral blood ([1]; patient 106): 5.6 pmol/mL
Anthocyanin concentration in saliva ([1]; patient 106): 6.1 pmol/mL
Anthocyanin concentration in peripheral blood ([1]; patient 107): 5.8 pmol/mL
Anthocyanin concentration in saliva ([1]; patient 107): 9.3 pmol/mL
Anthocyanin concentration in saliva ([1]; patient 108): 4.2 pmol/mL
Anthocyanin concentration in saliva ([1]; patient 109): 2.2 pmol/mL
Anthocyanin uptake, Gel pH 3.5, Avg. ± SEM [2, 3]: 31.9 pmol per mg tissue
Anthocyanin uptake, Gel pH 6.5, Avg. ± SEM [2, 3]: 113.0 pmol per mg tissue
% change 3.5 to 6.5, Avg. ± SEM ([2]; average of explant samples): 956.3%
% change 3.5 to 6.5 ([2]; explant sample 001): 474.1%
Anthocyanin uptake, Gel pH 3.5 ([2]; explant sample 001): 116.4 pmol per mg tissue
Anthocyanin uptake, Gel pH 6.5 ([2]; explant sample 001): 668.3 pmol per mg tissue
% change 3.5 to 6.5 ([2]; explant sample 002): 627.2%
Anthocyanin uptake, Gel pH 3.5 ([2]; explant sample 002): 9.3 pmol per mg tissue
Anthocyanin uptake, Gel pH 6.5 ([2]; explant sample 002): 67.8 pmol per mg tissue
% change 3.5 to 6.5 ([2]; explant sample 003): −14.8%
Anthocyanin uptake, Gel pH 3.5 ([2]; explant sample 003): 34.3 pmol per mg tissue
Anthocyanin uptake, Gel pH 6.5 ([2]; explant sample 003): 29.2 pmol per mg tissue
% change 3.5 to 6.5 ([2]; explant sample 004): −64.4%
Anthocyanin uptake, Gel pH 3.5 ([2]; explant sample 004): 26.3 pmol per mg tissue
Anthocyanin uptake, Gel pH 6.5 ([2]; explant sample 004): 9.4 pmol per mg tissue
% change 3.5 to 6.5 ([2]; explant sample 005): −20.0%
Anthocyanin uptake, Gel pH 3.5 ([2]; explant sample 005): 3.5 pmol per mg tissue
Anthocyanin uptake, Gel pH 6.5 ([2]; explant sample 005): 2.8 pmol per mg tissue
% change 3.5 to 6.5 ([2]; explant sample 006): 362.1%
Anthocyanin uptake, Gel pH 3.5 ([2]; explant sample 006): 45.7 pmol per mg tissue
Anthocyanin uptake, Gel pH 6.5 ([2]; explant sample 006): 211.1 pmol per mg tissue
% change 3.5 to 6.5 ([2]; explant sample 007): 45.1%
Anthocyanin uptake, Gel pH 3.5 ([2]; explant sample 007): 5.6 pmol per mg tissue
Anthocyanin uptake, Gel pH 6.5 ([2]; explant sample 007): 8.1 pmol per mg tissue
% change 3.5 to 6.5 ([2]; explant sample 008): 8905.1%
Anthocyanin uptake, Gel pH 3.5 ([2]; explant sample 008): 0.4 pmol per mg tissue
Anthocyanin uptake, Gel pH 6.5 ([2]; explant sample 008): 35.1 pmol per mg tissue
% change 3.5 to 6.5 ([2]; explant sample 009): 395.1%
Anthocyanin uptake, Gel pH 3.5 ([2]; explant sample 009): 43.9 pmol per mg tissue
Anthocyanin uptake, Gel pH 6.5 ([2]; explant sample 009): 207.4 pmol per mg tissue
% change 3.5 to 6.5 ([2]; explant sample 010): −91.4%
Anthocyanin uptake, Gel pH 3.5 ([2]; explant sample 010): 37.1 pmol per mg tissue
Anthocyanin uptake, Gel pH 6.5 ([2]; explant sample 010): 3.2 pmol per mg tissue
% change 3.5 to 6.5 ([2]; explant sample 011): −98.7%
Anthocyanin uptake, Gel pH 3.5 ([2]; explant sample 011): 28.7 pmol per mg tissue
Anthocyanin uptake, Gel pH 6.5 ([2]; explant sample 011): 0.4 pmol per mg tissue
